Data reported in patent publication US5135857A, “Process for the preparation of de-mannosyl teicoplanin derivatives” (Gruppo Lepetit S.p.A., priority 1987, dated 1992).

Experiments:
Assay type in all cases: cell-based
[1] = system: Strep. faecalis L149 ATCC 7080; test: MIC broth dilution test, Strep. faecalis; conditions: Isosensitest broth, 24 h
Procedure: (§1) Culture media and growth conditions for MIC (minimal inhibitory concentration) determinations were as follows: Isosensitest broth (Oxoid), 24 h, for staphylococci, Strep. faecalis and Gram-negative bacteria ( Escherichia coli); Todd-Hewitt broth (Difco), 24 h for other streptococcal species; GC base broth (Difco)+1% Isovitalex (BBL), 48 h, CO2 -enriched atmosphere for Neisseria gonorrhoeae; Brain Heart broth (Difco)+1% Supplement C (Difco), 48 h for Haemophilus influenzae; Inocula were of about 10^4 -10^5 colony-forming units/ml for broth dilution MICs.

Strep. pyogenes L49 C203 = test: MIC broth dilution test, Strep. pyogenes; conditions: Todd-Hewitt broth, 24 h
Procedure: as §1

[2] = system: Neisseria gonorrhoeae L997 ISM68/126; test: MIC broth dilution test, Neisseria gonorrhoeae; conditions: GC base broth + 1% Isovitalex, 48 h, CO2-enriched atmosphere
Procedure: as §1

[3] = system: Staph. epidermidis L147 ATCC 12228 (coagulase negative); test: MIC broth dilution test, Staph. epidermidis; conditions: Isosensitest broth, 24 h
Procedure: as §1

[4] = system: Strip. pneumoniae L44 UC41; test: MIC broth dilution test, Strep. pneumoniae; conditions: Todd-Hewitt broth, 24 h
Procedure: as §1

[5] = system: Haemophilus influenzae L970 type b ATCC 19418; test: MIC broth dilution test, Haemophilus influenzae; conditions: Brain Heart broth + 1% Supplement C, 48 h
Procedure: as §1

[6] = system: Staph. haemolyticus L602 (clinical isolate); test: MIC broth dilution test, Staph. haemolyticus; conditions: Isosensitest broth, 24 h
Procedure: as §1

[7] = system: Strep. mitis L796 (clinical isolate); test: MIC broth dilution test, Strep. mitis; conditions: Todd-Hewitt broth, 24 h
Procedure: as §1

Row | Compound | M.I.C. [1] | M.I.C. (Strep. pyogenes L49 C203) | M.I.C. [2] | M.I.C. [3] | M.I.C. [4] | M.I.C. [5] | M.I.C. [6] | M.I.C. [7]
1 | CCC(C)CCCCCCC(=O)N[C@H]1[C@H](Oc2c3cc4cc2Oc2ccc(cc2Cl)C(O[C@@H]2O[C@H](CO)[C@@H](O)[C@H](O)[C@H]2NC(C)=O)C2NC(=O)C(NC(=O)C4NC(=O)C4NC(=O)C(Cc5ccc(c(Cl)c5)O3)NC(=O)C(N)c3ccc(O)c(c3)Oc3cc(O)cc4c3)c3ccc(O)c(c3)-c3c(O)cc(O)cc3C(C(=O)O)NC2=O)O[C@H](CO)[C@@H](O)[C@@H]1O (stereo partly shown) [DM-TA2-4, de-mannosyl teicoplanin complex component 4] | 0.063 microgram/ml | 0.063 microgram/ml | 32 microgram/ml | 0.063 microgram/ml | 0.063 microgram/ml | 64 microgram/ml | 0.5 microgram/ml | 
2 | CCCCCCCCCC(=O)N[C@H]1[C@H](Oc2c3cc4cc2Oc2ccc(cc2Cl)C(O[C@@H]2O[C@H](CO)[C@@H](O)[C@H](O)[C@H]2NC(C)=O)C2NC(=O)C(NC(=O)C4NC(=O)C4NC(=O)C(Cc5ccc(c(Cl)c5)O3)NC(=O)C(N)c3ccc(O)c(c3)Oc3cc(O)cc4c3)c3ccc(O)c(c3)-c3c(O)cc(O)cc3C(C(=O)O)NC2=O)O[C@H](CO)[C@@H](O)[C@@H]1O (stereo partly shown) [DM-TA2-3, de-mannosyl teicoplanin complex component 3] | 0.063 microgram/ml | 0.063 microgram/ml | 32 microgram/ml | 0.063 microgram/ml | 0.063 microgram/ml | 64 microgram/ml | 0.5 microgram/ml | 0.063 microgram/ml
3 | CC(=O)N[C@H]1[C@H](OC2c3ccc(c(Cl)c3)Oc3cc4cc(c3O[C@@H]3O[C@H](CO)[C@@H](O)[C@H](O)[C@H]3NC(=O)CCCCCCCC(C)C)Oc3ccc(cc3Cl)CC3NC(=O)C(N)c5ccc(O)c(c5)Oc5cc(O)cc(c5)C(NC3=O)C(=O)NC4C(=O)NC3C(=O)NC2C(=O)NC(C(=O)O)c2cc(O)cc(O)c2-c2cc3ccc2O)O[C@H](CO)[C@@H](O)[C@@H]1O (stereo partly shown) [DM-TA2-5, de-mannosyl teicoplanin complex component 5] | 0.063 microgram/ml | 0.063 microgram/ml | 32 microgram/ml | 0.063 microgram/ml | 0.063 microgram/ml | 32 microgram/ml | 0.25 microgram/ml | 0.063 microgram/ml
4 | CC(=O)N[C@H]1[C@H](OC2c3ccc(c(Cl)c3)Oc3cc4cc(c3O[C@@H]3O[C@H](CO)[C@@H](O)[C@H](O)[C@H]3NC(=O)CCCCCCC(C)C)Oc3ccc(cc3Cl)CC3NC(=O)C(N)c5ccc(O)c(c5)Oc5cc(O)cc(c5)C(NC3=O)C(=O)NC4C(=O)NC3C(=O)NC2C(=O)NC(C(=O)O)c2cc(O)cc(O)c2-c2cc3ccc2O)O[C@H](CO)[C@@H](O)[C@@H]1O (stereo partly shown) [DM-TA2-2, de-mannosyl teicoplanin complex component 2] | 0.063 microgram/ml | 0.063 microgram/ml | 32 microgram/ml | 0.063 microgram/ml | 0.063 microgram/ml | 64 microgram/ml | 0.5 microgram/ml | 0.063 microgram/ml
